Source: patent EP0326331B1, “Substituted quinolines and cinnolines” (Dow AgroSciences LLC, priority 1988, dated 1989)

What was measured:
Type in all cases: in vivo
[1] = tested on: corn rootworm; experiment: Mite/insect screen, CRW; details: percent mortality, read-out: CRW RESULTS %; for mortality at 12 ppm: CRW RATE 12.00 PPM; for mortality at 24 ppm: CRW RATE 24.00 PPM
In short: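 Stock in acetone:alcohol 1:1 + TOXIMUL R 23 g/L + TOXIMUL S 13 g/L; diluted with water to indicated concentrations; mortality (%) after standard exposure.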

[2] = tested on: southern armyworm (Spodopetra eridania Cramer); experiment: Mite/insect screen, SAW; details: percent mortality, SAW; for mortality at 200 ppm / mortality at 400 ppm: Spodoptera eridania, read-out: SAW RESULTS %; for mortality at 400 ppm: SM & MA RATE 400 PPM
In short: (§1)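 First, each compound was dissolved in an emulsifier-containing acetone/alcohol mixture and diluted with water. Next, leaves were sprayed until runoff and left to dry for an hour. For southern armyworm, two excised uninfested leaves went into a Petri dish with larvae; percent mortality followed standard exposure periods.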

[3] = tested on: Puccinia recondita tritici (leaf rust); experiment: Test 1 greenhouse foliar spray screen, leaf rust on wheat; details: disease control rating, foliar spray on wheat, 400 ppm (+++ at 100 ppm)
[4] = tested on: Venturia inaequalis (apple scab); experiment: Test 1 greenhouse foliar spray screen, apple scab on apple seedling; details: disease control rating, foliar spray on apple seedling, 400 ppm (+++ at 100 ppm)
[5] = tested on: Twospotted spider mites (Tetranychus urticae Koch); experiment: Mite/insect screen, SM; details: for mortality at 200 ppm / mortality at 400 ppm: Tetranychus urticae, read-out: SM RESULTS %; for mortality at 400 ppm: SM & MA RATE 400 PPM
In short: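 Read-out: percent mortality after standard exposure periods. Test solutions were water dilutions of compound dissolved in acetone/alcohol (50:50) with emulsifier blends; leaves were sprayed to runoff on both surfaces and air-dried for one hour before exposure.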

[6] = tested on: melon aphids (Aphis gossypii Glover); experiment: Mite/insect screen, MA; details: percent mortality, SAW; for mortality at 200 ppm / mortality at 400 ppm: Aphis gossypii, read-out: MA RESULTS %; for mortality at 400 ppm: SM & MA RATE 400 PPM
In short: as §1

[7] = tested on: Botrytis cinerea (gray mold); experiment: Test 1 greenhouse foliar spray screen, gray mold on grape berries; details: disease control rating, spray on grape berries, 400 ppm (+++ at 100 ppm)
[8] = tested on: Septoria tritici (leaf blotch); experiment: Test 1 greenhouse foliar spray screen, leaf blotch on wheat; details: disease control rating, foliar spray on wheat, 400 ppm (+++ at 100 ppm)
[9] = tested on: Cercospora beticola (leaf spot); experiment: Test 1 greenhouse foliar spray screen, leaf spot on sugar beet; details: disease control rating, foliar spray on sugar beet, 400 ppm (+++ at 100 ppm)
[10] = tested on: Erysiphe graminis tritici (powdery mildew); experiment: Test 1 greenhouse foliar spray screen, powdery mildew on wheat; details: disease control rating, foliar spray on wheat, 400 ppm (+++ at 100 ppm)
[11] = tested on: Pyricularia oryzae (rice blast); experiment: whole plant or invertebrate; details: disease control rating, foliar spray on rice, 400 ppm (+++ at 100 ppm)
[12] = tested on: Pseudoperonospora cubensis (downy mildew); experiment: Test 1 greenhouse foliar spray screen, downy mildew on squash; details: for DOWN MDEW: disease control rating, foliar spray on squash, 400 ppm (+++ at 100 ppm)
[13] = percent mortality, SAW, SM & MA RATE 200 PPM
[14] = summary statement in the description

Structure (SMILES) | mortality at 12 ppm [1] | mortality at 200 ppm ([2]; SM & MA RATE 200 PPM) | LEAF RUST [3] | APPL SCAB [4] | mortality at 200 ppm [5, 13] | mortality at 200 ppm ([6]; SM & MA RATE 200 PPM) | GRAY MOLD [7] | LEAF BLOT [8] | LEAF SPOT [9] | POWD MDEW [10] | RICE BLAST [11] | DOWN MDEW [12] | mortality at 24 ppm [1] | mortality at 400 ppm [2] | mortality at 400 ppm ([5]; percent mortality, SAW) | mortality at 400 ppm [6] | other results
Fc1cc(F)c2nccc(NCCc3ccccc3)c2c1 [Example 7, 6,8-difluoro-N-(2-phenylethyl)-4-quinolinamine] | 0% | 0% | +++ (90-100% control at 100 ppm) | - (0-19% control at 400 ppm) | 0% | 0% | - (0-19% control at 400 ppm) | +++ (90-100% control at 100 ppm) | - (0-19% control at 400 ppm) | + (20-89% control at 400 ppm) | + (20-89% control at 400 ppm) | +++ (90-100% control at 100 ppm) | – | – | – | – | –
Fc1ccc2c(NCCc3ccccc3)ccnc2c1 [Example 8, 7-fluoro-N-(2-phenylethyl)-4-quinolinamine] | 0% | 100% | + (20-89% control at 400 ppm) | - (0-19% control at 400 ppm) | 0% | 0% | - (0-19% control at 400 ppm) | + (20-89% control at 400 ppm) | +++ (90-100% control at 100 ppm) | + (20-89% control at 400 ppm) | ++ (90-100% control at 400 ppm) | +++ (90-100% control at 100 ppm) | – | – | – | – | –
Fc1ccc2nccc(NCCc3ccccc3)c2c1 [Example 9, 6-fluoro-N-(2-phenylethyl)-4-quinolinamine] | 0% | 0% | + (20-89% control at 400 ppm) | - (0-19% control at 400 ppm) | 0% | 0% | - (0-19% control at 400 ppm) | - (0-19% control at 400 ppm) | - (0-19% control at 400 ppm) | + (20-89% control at 400 ppm) | + (20-89% control at 400 ppm) | +++ (90-100% control at 100 ppm) | – | – | – | – | –
Fc1cccc2c(NCCc3ccc(I)cc3)ccnc12 [Example 11, 8-fluoro-N-[2-(4-iodophenyl)ethyl]-4-quinolinamine] | 0% | 80% | +++ (90-100% control at 100 ppm) | - (0-19% control at 400 ppm) | 0% | 0% | - (0-19% control at 400 ppm) | - (0-19% control at 400 ppm) | +++ (90-100% control at 100 ppm) | - (0-19% control at 400 ppm) | ++ (90-100% control at 400 ppm) | ++ (90-100% control at 400 ppm) | 60% | 100% | 0% | 0% | activity as miticides [5, 14]: particularly excellent activity
Fc1cc(F)c2nccc(NCCc3ccc(Br)cc3)c2c1 [Example 12, N-[2-(4-bromophenyl)ethyl]-6,8-difluoro-4-quinolinamine] | 0% | 0% | +++ (90-100% control at 100 ppm) | - (0-19% control at 400 ppm) | 0% | 0% | - (0-19% control at 400 ppm) | ++ (90-100% control at 400 ppm) | +++ (90-100% control at 100 ppm) | + (20-89% control at 400 ppm) | ++ (90-100% control at 400 ppm) | ++ (90-100% control at 400 ppm) | 40% | 100% | 0% | 0% | –
FC(F)(F)c1cccc2c(NCCc3ccc(Br)cc3)ccnc12 [Example 13, N-[2-(4-bromophenyl)ethyl]-8-(trifluoromethyl)-4-quinolinamine] | 0% | 0% | ++ (90-100% control at 400 ppm) | - (0-19% control at 400 ppm) | 0% | 0% | - (0-19% control at 400 ppm) | - (0-19% control at 400 ppm) | - (0-19% control at 400 ppm) | - (0-19% control at 400 ppm) | ++ (90-100% control at 400 ppm) | ++ (90-100% control at 400 ppm) | 0% | 0% | 0% | 0% | –
Cc1ccc2nccc(NCCc3ccc(Cl)cc3)c2c1 [Example 14, N-[2-(4-chlorophenyl)ethyl]-6-methyl-4-quinolinamine] | 0% | 0% | + (20-89% control at 400 ppm) | - (0-19% control at 400 ppm) | 0% | 0% | - (0-19% control at 400 ppm) | - (0-19% control at 400 ppm) | +++ (90-100% control at 100 ppm) | - (0-19% control at 400 ppm) | + (20-89% control at 400 ppm) | +++ (90-100% control at 100 ppm) | 0% | 0% | 0% | 0% | activity against downy mildew [12, 14]: particularly excellent activity
Cc1cc(C)c2nccc(NCCc3ccc(Cl)cc3)c2c1 [Example 15, N-[2-(4-chlorophenyl)ethyl]-6,8-dimethyl-4-quinolinamine] | 0% | 0% | + (20-89% control at 400 ppm) | + (20-89% control at 400 ppm) | 0% | 0% | - (0-19% control at 400 ppm) | - (0-19% control at 400 ppm) | +++ (90-100% control at 100 ppm) | - (0-19% control at 400 ppm) | + (20-89% control at 400 ppm) | +++ (90-100% control at 100 ppm) | 0% | 0% | 0% | 0% | –
COc1ccc2nccc(NCCc3ccc(Cl)cc3)c2c1 [Example 16, N-[2-(4-chlorophenyl)ethyl]-6-methoxy-4-quinolinamine] | 0% | 0% | + (20-89% control at 400 ppm) | - (0-19% control at 400 ppm) | 0% | 0% | - (0-19% control at 400 ppm) | - (0-19% control at 400 ppm) | +++ (90-100% control at 100 ppm) | - (0-19% control at 400 ppm) | + (20-89% control at 400 ppm) | +++ (90-100% control at 100 ppm) | 0% | 0% | 0% | 0% | –
Cc1ccc(CCNc2ccnc3c(F)cccc23)cc1 [Example 71, 8-fluoro-N-[2-(4-methylphenyl)ethyl]-4-quinolinamine] | – | 0% | +++ (90-100% control at 100 ppm) | - (0-19% control at 400 ppm) | 0% | 0% | - (0-19% control at 400 ppm) | + (20-89% control at 400 ppm) | +++ (90-100% control at 100 ppm) | + (20-89% control at 400 ppm) | + (20-89% control at 400 ppm) | +++ (90-100% control at 100 ppm) | – | – | – | – | SAW RESULTS % ([2]; SM & MA RATE 200 PPM): 0%; SM RESULTS % [5, 13]: 0%; MA RESULTS % ([6]; SM & MA RATE 200 PPM): 0%
